Results: ChEMBL document CHEMBL1145947, “Generation of bis-cationic heterocyclic inhibitors of Bacillus subtilis HPr kinase/phosphatase from a ditopic dynamic combinatorial library” (J Med Chem, 2003)

Tests used:
HPr kinase/phosphorylase [1] = biological target: T1, HPr kinase/phosphorylase (Bacillus subtilis (strain 168), UniProt O34483); assay: Inhibition of bifunctional enzyme HPr kinase/phosphatase from Bacillus subtilis at pH 7.0 and hill coefficient of 1.4
T1 sequence (O34483 whole entry): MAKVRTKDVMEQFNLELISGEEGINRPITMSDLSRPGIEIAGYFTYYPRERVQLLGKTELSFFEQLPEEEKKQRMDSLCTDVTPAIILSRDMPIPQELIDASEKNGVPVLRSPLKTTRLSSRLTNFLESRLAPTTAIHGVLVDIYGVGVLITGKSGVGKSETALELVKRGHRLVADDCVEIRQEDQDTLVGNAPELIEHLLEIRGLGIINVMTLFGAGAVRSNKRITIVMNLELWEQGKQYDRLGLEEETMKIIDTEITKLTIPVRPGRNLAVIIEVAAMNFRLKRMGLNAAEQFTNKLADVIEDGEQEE

HPr kinase/phosphorylase [2] = biological target: T1, HPr kinase/phosphorylase; assay: Inhibition of bifunctional enzyme HPr kinase/phosphatase from Bacillus subtilis at pH 8.0 and hill coefficient of 2.9

IC50 (HPr kinase/phosphorylase [1]): 17 µM | IC50 (HPr kinase/phosphorylase [2]): 18 µM
SMILES: N=c1n(CC(=O)N/N=C/c2ccc(/C=N/NC(=O)Cn3c(=N)n(Cc4ccccc4)c4ccccc43)cc2)c2ccccc2n1Cc1ccccc1
